Experiments:
[1] = molecular target: Vascular endothelial growth factor receptor 2 (Homo sapiens, UniProt P35968); test: Inhibition of KDR by HTRF assay
[2] = tested on: Lymphocyte; test: Inhibition of T cell activation in human peripheral blood lymphocytes by mixed lymphocyte reaction; assay type: functional, cell-based
[3] = molecular target: Tyrosine-protein kinase Lck (Homo sapiens, UniProt P06239)
Description: Inhibition of Lck by HTRF assay

[4] = molecular target: Mitogen-activated protein kinase 14 (Homo sapiens, UniProt Q16539); test: Inhibition of p38alpha by HTRF assay
[5] = molecular target: Angiopoietin-1 receptor (Homo sapiens, UniProt Q02763); test: Inhibition of Tie2 by HTRF assay
[6] = molecular target: T1, Tyrosine-protein kinase JAK3 (Homo sapiens, UniProt P52333); test: Inhibition of Jak3 by HTRF assay
T1 sequence (P52333 whole entry): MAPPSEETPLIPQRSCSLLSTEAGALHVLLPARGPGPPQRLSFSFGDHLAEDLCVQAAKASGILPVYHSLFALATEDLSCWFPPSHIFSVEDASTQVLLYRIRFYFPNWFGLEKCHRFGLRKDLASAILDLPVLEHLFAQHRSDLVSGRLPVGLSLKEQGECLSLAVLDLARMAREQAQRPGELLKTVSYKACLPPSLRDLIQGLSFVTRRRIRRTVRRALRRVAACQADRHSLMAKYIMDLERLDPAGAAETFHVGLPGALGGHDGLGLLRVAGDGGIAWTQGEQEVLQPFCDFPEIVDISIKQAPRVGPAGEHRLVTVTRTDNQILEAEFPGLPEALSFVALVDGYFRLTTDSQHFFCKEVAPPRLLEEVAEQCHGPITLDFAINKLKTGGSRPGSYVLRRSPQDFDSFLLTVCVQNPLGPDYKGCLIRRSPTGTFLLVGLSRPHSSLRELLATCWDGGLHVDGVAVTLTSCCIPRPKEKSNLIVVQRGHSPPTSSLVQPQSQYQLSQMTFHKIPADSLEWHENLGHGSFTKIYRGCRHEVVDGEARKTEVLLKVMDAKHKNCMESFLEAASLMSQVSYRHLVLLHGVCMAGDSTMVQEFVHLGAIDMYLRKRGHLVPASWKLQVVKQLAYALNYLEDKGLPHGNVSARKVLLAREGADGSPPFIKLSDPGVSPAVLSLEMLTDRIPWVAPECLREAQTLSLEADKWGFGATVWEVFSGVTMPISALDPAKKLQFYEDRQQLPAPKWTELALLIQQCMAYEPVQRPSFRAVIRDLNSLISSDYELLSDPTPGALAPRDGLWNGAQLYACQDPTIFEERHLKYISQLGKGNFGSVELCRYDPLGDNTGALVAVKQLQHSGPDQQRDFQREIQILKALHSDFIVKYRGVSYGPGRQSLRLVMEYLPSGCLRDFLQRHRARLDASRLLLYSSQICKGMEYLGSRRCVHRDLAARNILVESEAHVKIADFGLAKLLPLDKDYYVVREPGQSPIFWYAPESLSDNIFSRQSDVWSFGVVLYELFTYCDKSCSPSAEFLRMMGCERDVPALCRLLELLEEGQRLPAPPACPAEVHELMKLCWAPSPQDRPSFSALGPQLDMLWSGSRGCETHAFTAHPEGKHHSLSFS

[7] = Tmax in Sprague-Dawley rat at 2 mg/kg; assay type: ADME, organism-based; parameters: dose 2 mg/kg; settings: in vivo
[8] = Oral bioavailability in Sprague-Dawley rat at 2 mg/kg; assay type: ADME, organism-based; settings: in vivo
[9] = tested on: Blood; test: Inhibition of anti-CD3-induced IL2 production in human whole blood by ELISA; assay type: functional, tissue-based
[10] = AUC (0 to infinity) in Sprague-Dawley rat at 2 mg/kg, po; assay type: ADME, organism-based; parameters: time infinity, dose 2 mg/kg, route oral; settings: plasma
[11] = Cmax in Sprague-Dawley rat at 2 mg/kg, po; assay type: ADME, organism-based; parameters: dose 2 mg/kg, route oral; settings: in vivo
[12] = Protein binding in rat plasma; assay type: ADME, cell-free; settings: read-out: PB (converted)
[13] = tested on: Blood; test: Inhibition of LPS-induced TNFalpha production in human whole blood by ELISA; assay type: functional, tissue-based
[14] = Half life in Sprague-Dawley rat at 0.5 mg/kg, iv; assay type: ADME, organism-based; parameters: dose 0.5 mg/kg, route intravenous; settings: in vivo
[15] = Protein binding in mouse plasma; assay type: ADME, cell-free; settings: read-out: PB (converted)
[16] = Volume of distribution at steady state in Sprague-Dawley rat at 0.5 mg/kg, iv; assay type: ADME, organism-based; parameters: dose 0.5 mg/kg, route intravenous; settings: in vivo, read-out: Vdss
[17] = Clearance in Sprague-Dawley rat at 0.5 mg/kg, iv; assay type: ADME, organism-based; parameters: dose 0.5 mg/kg, route intravenous; settings: in vivo
[18] = species on record: Mus musculus; test: Inhibition of anti-CD3-induced IL2 production in BALB/c mouse; assay type: functional

Angiopoietin-1 receptor, sequence (Q02763 whole entry): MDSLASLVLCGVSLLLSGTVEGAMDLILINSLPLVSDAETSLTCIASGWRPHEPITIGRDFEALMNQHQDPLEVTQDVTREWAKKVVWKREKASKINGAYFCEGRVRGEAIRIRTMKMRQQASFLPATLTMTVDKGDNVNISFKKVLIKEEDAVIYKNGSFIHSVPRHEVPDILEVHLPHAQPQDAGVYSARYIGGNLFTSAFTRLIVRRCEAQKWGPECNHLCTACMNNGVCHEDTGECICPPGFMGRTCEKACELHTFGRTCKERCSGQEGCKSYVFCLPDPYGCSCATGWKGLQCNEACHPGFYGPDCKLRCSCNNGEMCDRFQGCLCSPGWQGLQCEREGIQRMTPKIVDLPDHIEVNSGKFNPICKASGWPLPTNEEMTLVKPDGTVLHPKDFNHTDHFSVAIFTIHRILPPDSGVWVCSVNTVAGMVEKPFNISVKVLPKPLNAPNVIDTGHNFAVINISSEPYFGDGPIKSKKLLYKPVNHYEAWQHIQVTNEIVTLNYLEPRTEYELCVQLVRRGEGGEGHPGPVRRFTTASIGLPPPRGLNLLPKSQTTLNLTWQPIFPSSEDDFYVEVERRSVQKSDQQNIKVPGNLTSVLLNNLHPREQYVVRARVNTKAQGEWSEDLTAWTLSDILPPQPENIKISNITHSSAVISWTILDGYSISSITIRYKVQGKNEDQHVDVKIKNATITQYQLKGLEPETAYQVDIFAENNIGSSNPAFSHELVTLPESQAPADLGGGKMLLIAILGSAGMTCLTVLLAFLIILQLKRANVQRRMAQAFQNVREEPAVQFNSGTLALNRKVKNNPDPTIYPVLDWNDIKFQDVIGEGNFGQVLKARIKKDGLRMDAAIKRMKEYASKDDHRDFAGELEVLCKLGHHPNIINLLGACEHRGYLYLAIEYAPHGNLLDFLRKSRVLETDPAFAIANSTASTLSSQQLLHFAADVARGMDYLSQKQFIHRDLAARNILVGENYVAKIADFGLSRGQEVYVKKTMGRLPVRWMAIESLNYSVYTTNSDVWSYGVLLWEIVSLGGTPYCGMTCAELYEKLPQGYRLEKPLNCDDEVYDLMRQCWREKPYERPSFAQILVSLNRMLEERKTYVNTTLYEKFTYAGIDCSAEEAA
Mitogen-activated protein kinase 14, sequence (Q16539 whole entry): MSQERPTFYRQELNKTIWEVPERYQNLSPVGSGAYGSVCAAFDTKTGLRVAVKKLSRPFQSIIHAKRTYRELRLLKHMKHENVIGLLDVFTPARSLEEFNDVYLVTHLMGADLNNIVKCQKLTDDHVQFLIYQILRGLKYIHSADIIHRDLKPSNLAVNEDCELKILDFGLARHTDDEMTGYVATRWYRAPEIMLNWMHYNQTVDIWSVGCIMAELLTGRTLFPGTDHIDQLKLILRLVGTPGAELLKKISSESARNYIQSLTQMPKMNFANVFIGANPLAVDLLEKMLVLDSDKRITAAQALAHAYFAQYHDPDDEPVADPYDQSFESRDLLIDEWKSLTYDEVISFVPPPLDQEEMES
Tyrosine-protein kinase Lck, sequence (P06239 whole entry): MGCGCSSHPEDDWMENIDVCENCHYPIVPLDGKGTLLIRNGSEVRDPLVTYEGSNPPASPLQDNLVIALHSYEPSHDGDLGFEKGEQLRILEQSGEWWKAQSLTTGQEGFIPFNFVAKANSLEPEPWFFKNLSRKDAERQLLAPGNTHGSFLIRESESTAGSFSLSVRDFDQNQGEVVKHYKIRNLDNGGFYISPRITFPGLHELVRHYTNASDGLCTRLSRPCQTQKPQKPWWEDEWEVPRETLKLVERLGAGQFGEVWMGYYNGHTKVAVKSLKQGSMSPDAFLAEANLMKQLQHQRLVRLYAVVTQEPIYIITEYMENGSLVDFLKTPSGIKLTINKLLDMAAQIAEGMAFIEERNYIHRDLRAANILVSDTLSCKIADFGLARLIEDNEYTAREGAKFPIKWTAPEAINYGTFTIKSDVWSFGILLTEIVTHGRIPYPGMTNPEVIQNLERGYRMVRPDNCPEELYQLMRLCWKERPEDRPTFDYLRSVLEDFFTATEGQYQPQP
Vascular endothelial growth factor receptor 2, sequence (P35968 whole entry): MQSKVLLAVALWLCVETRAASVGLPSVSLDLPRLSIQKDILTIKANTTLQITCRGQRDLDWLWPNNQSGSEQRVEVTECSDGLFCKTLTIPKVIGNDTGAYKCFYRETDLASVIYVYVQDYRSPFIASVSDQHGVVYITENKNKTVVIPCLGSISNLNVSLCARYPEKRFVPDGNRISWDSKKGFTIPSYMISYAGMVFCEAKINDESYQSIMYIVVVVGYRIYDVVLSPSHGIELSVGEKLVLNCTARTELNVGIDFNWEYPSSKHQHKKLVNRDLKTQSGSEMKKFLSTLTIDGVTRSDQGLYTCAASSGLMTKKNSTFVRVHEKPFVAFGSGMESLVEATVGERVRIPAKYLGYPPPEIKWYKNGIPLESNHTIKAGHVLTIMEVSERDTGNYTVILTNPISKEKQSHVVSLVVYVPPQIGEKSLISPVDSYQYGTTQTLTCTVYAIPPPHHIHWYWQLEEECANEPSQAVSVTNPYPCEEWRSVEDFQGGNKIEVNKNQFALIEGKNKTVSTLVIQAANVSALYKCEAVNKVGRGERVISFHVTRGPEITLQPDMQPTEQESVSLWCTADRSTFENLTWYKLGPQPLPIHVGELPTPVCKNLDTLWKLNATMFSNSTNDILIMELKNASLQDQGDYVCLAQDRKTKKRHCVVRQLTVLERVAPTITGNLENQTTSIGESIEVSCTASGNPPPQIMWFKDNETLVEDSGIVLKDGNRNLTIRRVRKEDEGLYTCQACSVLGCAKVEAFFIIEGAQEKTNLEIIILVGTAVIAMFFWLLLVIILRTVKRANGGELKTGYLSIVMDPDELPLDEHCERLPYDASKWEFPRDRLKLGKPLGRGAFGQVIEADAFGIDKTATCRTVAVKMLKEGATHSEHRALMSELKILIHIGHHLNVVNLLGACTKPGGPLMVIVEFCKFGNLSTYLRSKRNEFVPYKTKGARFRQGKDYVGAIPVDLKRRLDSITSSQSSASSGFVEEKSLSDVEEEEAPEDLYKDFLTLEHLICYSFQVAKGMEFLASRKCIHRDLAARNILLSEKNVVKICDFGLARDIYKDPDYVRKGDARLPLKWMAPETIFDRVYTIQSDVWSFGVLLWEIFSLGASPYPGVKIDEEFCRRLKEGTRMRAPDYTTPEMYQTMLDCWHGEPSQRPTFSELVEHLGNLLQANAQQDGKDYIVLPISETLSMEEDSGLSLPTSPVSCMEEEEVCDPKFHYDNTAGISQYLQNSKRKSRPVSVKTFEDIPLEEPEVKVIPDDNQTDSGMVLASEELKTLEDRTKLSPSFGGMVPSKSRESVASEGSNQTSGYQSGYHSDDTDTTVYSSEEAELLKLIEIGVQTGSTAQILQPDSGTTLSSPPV

Structure (SMILES) | IC50 [1] [nM] | IC50 [2] [nM] | IC50 [3] [nM] | IC50 [4] [nM] | IC50 [5] [nM] | IC50 [6] [nM] | Tmax [7] [h] | bioavailability [8] [%] | IC50 [9] [nM] | AUC(0-inf) [10] [ng·h/mL] | Cmax [11] [ng/mL] | fraction unbound [12] | IC50 [13] [nM] | half-life [14] [h] | fraction unbound [15] | Vd [16] [L/kg] | clearance [17] [mL/min/kg] | ED50 [18] [mg/kg]
Cc1ccc(NC(=O)c2ccccc2)cc1C(=O)Nc1cnc(Nc2ccc(N3CCN(C)CC3)cc2)nc1 | 947 | 187 | 5 | 0.9 | > 25000 | > 25000 |  |  |  |  |  |  |  |  |  |  |  | 
Cc1ccc(NC(=O)c2cc(F)cc(C(F)(F)F)c2)cc1C(=O)Nc1cnc(Nc2ccc(N3CCN(C)CC3)cc2)nc1 | 17 | 21 | 0.3 | 3 | 6080 | > 25000 | 0.6 | 8 | 16 | 332 | 39 | 0.023 | 1010 | 3.8 | 0.018 | 1.61 | 8.17 | 
Cc1ccc(NC(=O)c2cccc(C(F)(F)F)c2)cc1C(=O)Nc1cncnc1 | > 8300 |  |  | 199 | > 25000 | > 25000 |  |  |  |  |  |  |  |  |  |  |  | 
Cc1ccc(NC(=O)c2cnoc2C)cc1C(=O)Nc1cnc(Nc2ccc(N3CCN(C)CC3)cc2)nc1 | 3780 | 3920 | 14 | 179 | > 25000 | > 25000 |  |  |  |  |  |  |  |  |  |  |  | 
Cc1ccc(NC(=O)c2cccc(C(F)(F)F)c2)cc1C(=O)Nc1cnc(NCCN2CCOCC2)nc1 | > 8300 | 202 |  | 6 | > 25000 | > 25000 |  |  |  |  |  |  |  |  |  |  |  | 
Cc1ccc(NC(=O)Nc2cccc(C(F)(F)F)c2)cc1-c1ccc2nc(N)ncc2c1 | 169 | 205 | 7 | 28 | 93 | 3040 |  |  |  |  |  |  |  |  |  |  |  | 
CN1CCN(c2ccc(Nc3ncc(NC(=O)c4cc(NC(=O)c5ccc6c(c5)OC(F)(F)O6)ccc4Cl)cn3)cc2)CC1 | 13 | 29 | 1.8 | 6 | > 5000 | > 5000 |  |  |  |  |  |  |  |  |  |  |  | 
CN1CCN(c2ccc(Nc3ncc(NC(=O)c4c(Cl)cccc4Cl)cn3)cc2)CC1 | > 25000 | 555 | 10 | 1070 | > 25000 | > 25000 |  |  |  |  |  |  |  |  |  |  |  | 
C/C=C/C[C@@H](C)[C@@H](O)[C@H]1C(=O)N[C@@H](CC)C(=O)N(C)CC(=O)N(C)[C@@H](CC(C)C)C(=O)N[C@@H](C(C)C)C(=O)N(C)[C@@H](CC(C)C)C(=O)N[C@@H](C)C(=O)N[C@H](C)C(=O)N(C)[C@@H](CC(C)C)C(=O)N(C)[C@@H](CC(C)C)C(=O)N(C)[C@@H](C(C)C)C(=O)N1C [CYCLOSPORINE] |  |  |  |  |  |  |  |  |  |  |  |  |  |  |  |  |  | 10
CC(=O)Nc1ccc(C)c(C(=O)Nc2cnc(Nc3ccc(N4CCN(C)CC4)cc3)nc2)c1 | > 5000 |  | 48 | 63 | > 25000 | > 25000 |  |  |  |  |  |  |  |  |  |  |  | 
Cc1ccc(NC(=O)c2cccc(C(F)(F)F)c2)cc1C(=O)Nc1cnc(NC2CCN(C)CC2)nc1 | > 25000 |  | 1310 | 5 | > 25000 | > 25000 |  |  |  |  |  |  |  |  |  |  |  | 
COc1ccccc1C(=O)Nc1ccc(C)c(C(=O)Nc2cnc(Nc3ccc(N4CCN(C)CC4)cc3)nc2)c1 | 1120 | 399 | 5 | 8 | > 25000 | > 25000 |  |  |  |  |  |  |  |  |  |  |  | 
Cc1ccc(NC(=O)c2ccc(C(C)(C)C)cc2)cc1C(=O)Nc1cnc(Nc2ccc(N3CCN(C)CC3)cc2)nc1 | 32 | 10 | 1.5 | 22 | > 8300 | > 25000 |  |  |  |  |  |  |  | 2.9 |  | 15.8 | 111 | 
Cc1ccc(NC(=O)c2cccc(C(F)(F)F)c2)c(C)c1C(=O)Nc1cnc(Nc2ccc(N3CCN(C)CC3)cc2)nc1 | 2540 | 836 | 6 | 103 | > 25000 | > 25000 |  |  |  |  |  |  |  |  |  |  |  | 
Cc1ccc(C(=O)Nc2cccc(C(F)(F)F)c2)cc1C(=O)Nc1cnc(N)nc1 | 205 |  | 15 | 87 | > 5000 | > 25000 |  |  |  |  |  |  |  |  |  |  |  | 
Cc1ccc(NC(=O)c2cccc(C(F)(F)F)c2)cc1-c1ccc2nc(N)ncc2c1 | 6 | 43 | 0.4 | 1 | 21 | 156 |  |  |  |  |  |  |  |  |  |  |  | 
Cc1ccc(C(=O)Nc2cccc(C(F)(F)F)c2)cc1-c1ccc2nc(N)ncc2c1 |  | 9 |  |  |  |  |  |  |  |  |  |  |  |  |  |  |  | 
Cc1ccc(NC(=O)Nc2cccc(C(F)(F)F)c2)cc1C(=O)Nc1cnc(Nc2ccc(N3CCN(C)CC3)cc2)nc1 | 41 | 87 | 0.6 | 2 | > 8300 | > 25000 |  |  |  |  |  |  |  |  |  |  |  | 
CCc1ccc(NC(=O)c2ccc3c(c2)OC(F)(F)O3)cc1C(=O)Nc1cnc(Nc2ccc(N3CCN(C)CC3)cc2)nc1 | > 5000 | 928 | 6 | 233 | > 25000 | > 25000 |  |  |  |  |  |  |  |  |  |  |  | 
Cc1ccc(NC(=O)c2cccc(C(F)(F)F)c2C)cc1C(=O)Nc1cnc(Nc2ccc(N3CCN(C)CC3)cc2)nc1 | 54 | 60 |  | 12 | > 8300 | > 25000 | 2.75 | 7 | 2 | 92 | 28 | 0.014 | 1370 | 1.8 | 0.016 | 5.45 | 48.7 | 
COc1cc(OC)cc(C(=O)Nc2ccc(C)c(C(=O)Nc3cnc(Nc4ccc(N5CCN(C)CC5)cc4)nc3)c2)c1 | 120 | 77 | 1.4 | 4 | > 8300 | > 25000 | 0.33 | 8 | 43 | 528 | 191 | 0.017 |  | 2.5 | 0.012 | 0.79 | 4.83 | 
Cc1ccc(NC(=O)c2ccc3c(c2)OC(F)(F)O3)cc1C(=O)Nc1cnc(Nc2ccc(N3CCN(C)CC3)cc2)nc1 | 272 | 58 | 1.3 | 10 | > 8300 | > 25000 | 0.42 | 4 | 13 | 58 | 16 | 0.011 |  | 2.5 | 0.019 | 3.76 | 22.8 | 
Cc1ccc(NC(=O)Nc2cccc(C(F)(F)F)c2)cc1C(=O)Nc1cnc(N)nc1 | 587 | 158 | 63 |  | > 25000 | > 25000 |  |  |  |  |  |  |  |  |  |  |  | 
Cc1ccc(NC(=O)c2cccc(C(F)(F)F)c2)cc1C(=O)Nc1cnc(N)nc1 | 125 | 107 |  |  | > 25000 | > 25000 |  |  | 1270 |  |  |  | > 10000 |  |  |  |  | 
Cc1ccc(C(=O)Nc2cccc(C(F)(F)F)c2)cc1C(=O)Nc1cnc(Nc2ccc(N3CCN(C)CC3)cc2)nc1 | 5 | 15 |  | 10 | 123 | 438 |  |  |  |  |  |  |  |  |  |  |  | 
Cc1ccc(NC(=O)c2cccc(C(F)(F)F)c2)cc1C(=O)Nc1cnc(NCCCN2CCOCC2)nc1 | > 8300 | 821 | 24 | 10 | > 25000 | > 25000 |  |  |  |  |  |  |  |  |  |  |  | 

— ChEMBL document CHEMBL1144680, “Structure-guided design of aminopyrimidine amides as potent, selective inhibitors of lymphocyte specific kinase: synthesis, structure-activity relationships, and inhibition of in vivo T cell activation” (J Med Chem, 2008)
